# In US20170007704A1, “CARRIER AND PHARMACEUTICAL COMPOSITIONS FOR INTRASINAL DELIVERY AND USES THEREOF” (priority 2015, published 2017):
# Tested on: multi-drug resistant P. aeruginosa
# Experiment: Susceptibility of the patient's positive bacterial culture
# Format: cell-based
# Settings: positive bacterial culture of the patient before treatment
# Source text: The patient was a person with an 8 year history of chronic rhinosinusitis with daily and recurrent symptoms including facial congestion, facial pain and pressure, headaches and mucopurulent nasal drainage. The patient achieved limited success with previous treatments which included oral antibiotics, oral/nasal corticosteroids, antibiotic irrigation, saline rinses and suctioning. A positive bacterial culture indicated the presence of multi-drug resistant P. aeruginosa, susceptible only to colistimethate. Colistimethate was only commercially available as a solution for intravenous infusion, requiring hospitalization and constant monitoring for neurotoxicity and nephrotoxicity. In order to avoid the intravenous route of administration and the necessary hospitalization, a novel topical formulation was prescribed, consisting of: […]
substance,measurement,value
colistimethate,susceptibility of cultured pathogen,susceptible
